The source of these data is US20210278408A1, “METHODS OF TREATMENT OF CANCER WITH SUBSTITUTED PYRROLE AND PYRAZOLE COMPOUNDS AND DIAGNOSIS OF CANCERS SUSCEPTIBLE TO TREATMENT WITH SUBSTITUTED PYRROLE AND PYRAZOLE COMPOUNDS” (Bantam Pharmaceutical, LLC, priority 2018, published 2021).

pIC50: −log10 of the molar value. “Also recorded” adds a separate entry of the source.

One assay relates to HCT-116. Briefly: Anti-proliferative activity, CellTiter-Glo, 72 hours: HCT-116. It counts as cell-based, human. Conditions: Homo sapiens, HCT-116 (colorectal cancer), Cell-Titre-Glo. The procedure:
(§1) Anti-proliferative activity of BTM compounds. The anti-proliferative activities of Compound A197 and Compound B19 were compared to 4EGI-1 (a known cancer cell growth inhibitor) in a panel of 99 tumor lines. Methods: A panel of 96 tumor and 3 normal cell lines were tested for sensitivity to the test compound. The cell lines were cultured in standard media and pipetted into 96-well plates at the required plating densities. The cells were acclimated for 24 hours prior to compound testing. Compound was prepared as a stock of 20 mM in DMSO. To prepare dose response curves compound was serially diluted in DMSO and dispensed into the plate wells using a Tecan D300e digital dispenser. The final DMSO concentration was 0.15%. After 72 hours of incubation cell number was determined using the CellTiter-Glo® protocol according to the manufacturers instructions (Promega). In this assay, ATP is measured as a surrogate of cell number. The activity of the compound is determined by comparing untreated cells with treated cells and calculating the % of signal retained. Compound activity is measured as an EC50 of maximum level of efficacy and the two are used to compute an activity area. The table below provides a comparison of activity in a data sample.

A further assay concerns SU-DHL-6. Briefly: Anti-proliferative activity, CellTiter-Glo, 72 hours: SU-DHL-6. It counts as cell-based, human. Conditions: Homo sapiens, SU-DHL-6 (B-cell lymphoma), Cell-Titre-Glo. The procedure:
as §1

The subject of another assay is NCI-H2122. The assay is described as follows: Anti-proliferative activity, CellTiter-Glo, 72 hours: NCI-H2122. Conditions: Homo sapiens, NCI-H2122 (non-small cell lung cancer), Cell-Titre-Glo. It counts as cell-based, human. The procedure:
as §1

Assay [1] has as its system ATF4, ATF6, ERN1/XBP1 and cell cycle regulated genes. Briefly: mRNA expression profiling by QPCR in NHLF, HCT-116, HAP1 and SU-DHL-2. Conditions: 5 μM, 8 hrs. It counts as cell-based, human. The procedure: FIG. 11 is a graph of expression of ATF4, ATF6, Xbp1, and cell cycle regulated genes in Compound A197 responsive cell lines. All cells were treated with 5 […] Compound A197 for 8 hrs, then RNA was isolated and specific gene expression determined by qPCR. All data are represented as Log2 Fc. *=p<0.05, n=3.
ATF4-mediated gene expression profile is induced by compounds. ATF4 activation is closely aligned with activation of ER stress and the related TF's ATF6, ERN1 and XBP1. To determine the role of each transcription factor, a set of fifteen genes were selected to evaluate the specificity of the response as related ATF4 and to other transcription factors. […] These genes can be regulated in a variety of ways and so reflect an outcome of compound action: cell cycle arrest.
Four cell lines were chosen for gene expression profiling. Normal Human Lung Fibroblasts were chosen as an example of a non-responsive cell line. The colorectal cancer cell line HCT-116 and the chronic myelogenous leukemia line HAP1 were chosen as examples of cell lines responsive to compound undergoing growth arrest. The diffuse large B-Cell lymphoma line SU-DHL-2 was chosen as a cell line undergoing growth arrest and apoptosis. […] RNA recovery is determined using a NanoDrop nucleic acid quantification device. […] The change in gene expression relative to vehicle is calculated using Expression Analysis software (ThermoFisher).

The subject of the next assay is Cell cycle. The assay is described as follows: High content imaging screen: cell cycle. It is filed as cell-based. The procedure: (§2) Mechanism of Action Screens A series of broad high content imaging, transcriptomic, metabolomic, and CRISPR KO screens were performed to link Compound A197 activity to a probable method of action. The outcome of these screens included two notable observations.

For another assay, the system named is HDAC. Briefly: In vitro assays: HDAC. It is filed as biochemical. The procedure:
as §2

The next assay has as its system Gene Expression. Briefly: Transcriptomic screen. It counts as cell-based. The procedure: as §2

As to `COC(=O)c1c(-c2cccc(F)c2)c(C)nn1-c1nc(C2=CCC(C(F)(F)F)CC2)c(SC(C)C)s1` (single isomer, unassigned) [Compound B19, methyl 4-(3-fluorophenyl)-1-(5-(isopropylthio)-4-(4-(trifluoromethyl)cyclohex-1-en-1-yl)thiazol-2-yl)-3-methyl-1H-pyrazole-5-carboxylate], the pIC50 is 6.46 in the assay with HCT-116, 6.27 in the assay with SU-DHL-6 and 6.74 in the assay with NCI-H2122.

As to `Cc1nn(-c2nc(-c3ccc(C(F)(F)F)cc3)c(SC(C)C)s2)c(C(=O)O)c1-c1cccc(F)c1` [Compound A197, 4-(3-fluorophenyl)-1-(5-(isopropylthio)-4-(4-(trifluoromethyl)phenyl)thiazol-2-yl)-3-methyl-1H-pyrazole-5-carboxylic acid], the “CDKN1A (p21/Waf1) mRNA expression” value in assay [1] is listed as “increased”. Besides, the “induction of ATF4, ATF6 or IRE1/Xbp1 regulated genes” value in assay [1] (HCT-116, HAP-1, SU-DHL-2, NHLF) is “preferentially induces ATF4, but not ATF6 or IRE1/Xbp1 regulated genes in three responsive tumor cell lines (HCT-116, HAP-1 and SU-DHL-2) but not in primary NHLF”. In addition, the negative-log IC50 (pIC50) was 6.53 in the assay with HCT-116, 6.28 in the assay on SU-DHL-6 and 6.70 in the assay on NCI-H2122. Also, the “Outcome: Cell cycle” value with Cell cycle is recorded as “G1 arrest associated with TP53 independent CDKN1A”. Moreover, in the assay with HDAC, the “Outcome: HDAC” value is “No activity on any HDAC”. Moreover, the “Outcome: Gene Expression” value in the assay on Gene Expression is reported as “induced the ATF4 pathway; also recorded: Induction of ATF pathway; no effect on cell cycle gene”.
